Key:
Type in all cases: in vivo, C57BL/6 mice
liver (LV) = experiment: Whole organ transcriptome (GeneChip microarray) of liver 6 h after adjuvant administration: sDEGs, hierarchical clustering; details: for Number of gene probes with statistically significant changes (sDEGs), LV, Down / Number of gene probes with statistically significant changes (sDEGs), LV, Up: liver, 6 h after adjuvant; for Number of gene probes with statistically significant changes (sDEGs), LV, Down: fold change <0.667, p<0.01, customized PA call=1; for Number of gene probes with statistically significant changes (sDEGs), LV, Up: fold change >1.5, p<0.01, customized PA call=1; for cluster of strongly responding individual samples in LV (clustering exceptions): key: G1 (interferon signaling); G2 (metabolism of lipids and lipoproteins); G3 (response to stress); G4 (response to wounding); G5 (phosphate-containing compound metabolic process); G6 (phagosome)
spleen (SP) = experiment: Whole organ transcriptome (GeneChip microarray) of spleen 6 h after adjuvant administration: sDEGs, hierarchical clustering; details: for Number of gene probes with statistically significant changes (sDEGs), SP, Down: fold change <0.667, p<0.01, customized PA call=1, 6 h after adjuvant; for Number of gene probes with statistically significant changes (sDEGs), SP, Up: fold change >1.5, p<0.01, customized PA call=1, 6 h after adjuvant
[1] = tested on: inguinal lymph nodes (LN); experiment: Whole organ transcriptome (GeneChip microarray) of draining inguinal lymph nodes 6 h after adjuvant administration: sDEGs, gene modules, hierarchical clustering; for adjuvant group (cluster) in LN: key: G1 (interferon signaling); G2 (metabolism of lipids and lipoproteins); G3 (response to stress); G4 (response to wounding); G5 (phosphate-containing compound metabolic process); G6 (phagosome)
[2] = tested on: preferentially upregulated genes in LV, SP, LN; experiment: Z-score-based differential gene expression analysis (adjuvant group- or adjuvant-associated genes, 40 module mapping, TargetMine annotation); details: ID
Outline: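 Per-sample fold-change values converted to gene-wise z-scores within each organ's data set, then triplicate z-scores summed per adjuvant. Genes with summed score >3 taken as preferentially expressed; gene groups defined by combined per-adjuvant z-score thresholds (z>1 to z>3) specific to each organ.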

## K3: B class CpG ODN (ATCGACTCTCGAGCGTTCTC), TLR9 ligand (chemistry not given here)
Liver (LV); i.d. administration
  Number of gene probes with statistically significant changes (sDEGs), LV, Down: 22
  Number of gene probes with statistically significant changes (sDEGs), LV, Up: 10
Liver (LV); i.p. administration
  Number of gene probes with statistically significant changes (sDEGs), LV, Down: 50
  Number of gene probes with statistically significant changes (sDEGs), LV, Up: 18
Liver (LV); samples D35_ID_x2 and K3_ID_x3 only
  cluster of strongly responding individual samples in LV (clustering exceptions): G2
Spleen (SP); i.d. administration
  Number of gene probes with statistically significant changes (sDEGs), SP, Down: 18
  Number of gene probes with statistically significant changes (sDEGs), SP, Up: 11
Spleen (SP); i.p. administration
  Number of gene probes with statistically significant changes (sDEGs), SP, Down: 10
  Number of gene probes with statistically significant changes (sDEGs), SP, Up: 24
[1]; LN, 6 h
  genes in module 16 of the LNs (M16^LN), phagosome-related, macrophage-associated: upregulated
  module M15^LN (immune system process, T cell associated): weakly induced
[1]; hierarchical clustering, lymph node
  adjuvant group (cluster) in LN: G5
[1]; i.d. administration, lymph node, fold change <0.667, p<0.01, customized PA call=1, 6 h after adjuvant
  Number of gene probes with statistically significant changes (sDEGs), LN, Down: 18
[1]; i.d. administration, lymph node, fold change >1.5, p<0.01, customized PA call=1, 6 h after adjuvant
  Number of gene probes with statistically significant changes (sDEGs), LN, Up: 53
[2]; LN, Module#(LN) 1
  z sum, 1444615_x_at Runx1t1: −2.11
[2]; LN, Module#(LN) 3
  z sum, 1420894_at Tgfbr1: −2.14
[2]; LN, Module#(LN) 7
  z sum, 1460069_at Smc6: −3.53
[2]; LN, Module#(LN) 8
  z sum, 1440371_at ---: −1.24
[2]; LN, Module#(LN) 9
  z sum, 1456346_at ---: −2.13
[2]; LN, Module#(LN) 10
  z sum, 1425105_at Rbp3: −2.11
[2]; LN, Module#(LN) 11
  z sum, 1455796_x_at Olfm1: −1.44
[2]; LN, Module#(LN) 12
  z sum, 1443302_at ---: −2.78
[2]; LN, Module#(LN) 14
  z sum, 1442518_at C030044O21Rik: −1.58
[2]; LN, Module#(LN) 19
  z sum, 1419486_at Foxc1: −0.76
[2]; LN, Module#(LN) 21
  z sum, 1441344_at Erlin1: −2.63
[2]; LN, Module#(LN) 24
  z sum, 1423611_at Alpl: −1
  z sum, 1448179_at Usmg5: −2.02
[2]; LN, Module#(LN) 26
  z sum, 1458457_at ---: −0.33
[2]; LN, Module#(LN) 28
  z sum, 1450377_at Thbs1: −2.87
[2]; LN, Module#(LN) 32
  z sum, 1443853_x_at Sfmbt1: −2.59
[2]; LN, Module#(LN) 33
  z sum, 1443392_at Trpv1: −1.04
[2]; LN, Module#(LN) 36
  z sum, 1440475_at AW011738: −2.36
[2]; LN, Module#(LN) 37
  z sum, 1416380_at Mov10: −2.43
  z sum, 1421008_at Rsad2: −1.42
  z sum, 1421009_at Rsad2: −0.76
  z sum, 1424339_at Oasl1: −0.5
  z sum, 1426013_s_at Plekha4: −1.53
  z sum, 1436058_at Rsad2: −0.71
  z sum, 1436472_at Slfn9: −2
  z sum, 1447241_at ---: −2.6
[2]; LN, Module#(LN) 39
  z sum, 1416039_x_at Cyr61: −1.58
[2]; LN, Module#(LN) 40
  z sum, 1418191_at Usp18: −0.03
  z sum, 1418293_at Ifit2: −0.49
  z sum, 1418580_at Rtp4: −1
  z sum, 1419603_at Ifi204: −1.28
  z sum, 1421911_at Stat2: −0.43
  z sum, 1422006_at Eif2ak2: −1.95
  z sum, 1422141_s_at Csprs///Gm15433///Gm2666///Gm7609///LOC100041903///LOC100503923: −1.36
  z sum, 1423555_a_at Ifi44: −1.43
  z sum, 1424444_a_at 1600014C10Rik: −0.85
  z sum, 1424607_a_at Gm4354: −0.89
  z sum, 1424609_a_at Cwc22///Gm4354///Xdh: −2.76
  z sum, 1431095_a_at Herc6: −0.73
  z sum, 1432417_a_at Tspan2: −2.15
  z sum, 1439886_at ---: −1.19
  z sum, 1450403_at Stat2: −1.07
  z sum, 1451777_at Ddx60: 0.163
  z sum, 1452349_x_at Ifi205///Mnda: −1.48
  z sum, 1453196_a_at Oasl2: −1.27
  z sum, 1453299_a_at Pnp///Pnp2: −0.78
  z sum, 1453757_at Herc6: −0.2
  z sum, 1456164_at AW011738: −2.08
  z sum, 1457035_at Al607873: −0.26
[2]; LV, sample x1
  Adar 1425405_a_at (Group G1, Modules 20): −0.3
  Adar 1434268_at (Group G1, Modules 20): −0.6
  Ddx58 1436562_at (Group G1, Modules 20): −0.3
  Ddx58 1456890_at (Group G1, Modules 20): −0.4
  Eif2ak2 1422005_at (Group G1, Modules 20): −0.5
  G3bp2 1421323_a_at (Group G1, Modules 20): −0.4
  Gm9706///Isg15 1431591_s_at (Group G1, Modules 20): −0.5
  H2-T10///H2-T22///H2-T9 1449875_s_at (Group G1, Modules 20): −0.3
  Ifih1 1426276_at (Group G1, Modules 20): −0.4
  Ifit1 1450783_at (Group G1, Modules 20): −0.5
  Ifit3 1449025_at (Group G1, Modules 20): −0.5
  Irf7 1417244_a_at (Group G1, Modules 20): −0.4
  Irgm1 1418825_at (Group G1, Modules 20): −0.5
  Mndal 1426906_at (Group G1, Modules 20): −0.3
  Pml 1448757_at (Group G1, Modules 20): −0.4
  Pml 1456103_at (Group G1, Modules 20): −0.5
  Rnf213 1455500_at (Group G1, Modules 20): −0.5
  Rsad2 1436058_at (Group G1, Modules 20): −0.5
  Shisa5 1423986_a_at (Group G1, Modules 20): −0.5
  Shisa5 1437503_a_at (Group G1, Modules 20): −0.5
  Stat1 1450033_a_at (Group G1, Modules 20): −0.5
  Stat1 1450034_at (Group G1, Modules 20): −0.4
  Tdrd7 1426716_at (Group G1, Modules 20): −0.3
  Tor1aip2 1418115_s_at (Group G1, Modules 20): −0.3
  Tor1aip2 1418116_at (Group G1, Modules 20): −0.4
  Tor1aip2 1435526_at (Group G1, Modules 20): −0.4
  Trim12a 1437432_a_at (Group G1, Modules 20): −0.6
  Uba7 1426970_a_at (Group G1, Modules 20): −0.2
[2]; LV, sample x2
  Adar 1425405_a_at (Group G1, Modules 20): −0.7
  Adar 1434268_at (Group G1, Modules 20): −0.5
  Ddx58 1436562_at (Group G1, Modules 20): −0.4
  Ddx58 1456890_at (Group G1, Modules 20): −0.4
  Eif2ak2 1422005_at (Group G1, Modules 20): −0.5
  G3bp2 1421323_a_at (Group G1, Modules 20): −0.5
  Gm9706///Isg15 1431591_s_at (Group G1, Modules 20): −0.5
  H2-T10///H2-T22///H2-T9 1449875_s_at (Group G1, Modules 20): −0.5
  Ifih1 1426276_at (Group G1, Modules 20): −0.4
  Ifit1 1450783_at (Group G1, Modules 20): −0.5
  Ifit3 1449025_at (Group G1, Modules 20): −0.5
  Irf7 1417244_a_at (Group G1, Modules 20): −0.4
  Irgm1 1418825_at (Group G1, Modules 20): −0.6
  Mndal 1426906_at (Group G1, Modules 20): −0.3
  Pml 1448757_at (Group G1, Modules 20): −0.6
  Pml 1456103_at (Group G1, Modules 20): −0.6
  Rnf213 1455500_at (Group G1, Modules 20): −0.5
  Rsad2 1436058_at (Group G1, Modules 20): −0.5
  Shisa5 1423986_a_at (Group G1, Modules 20): −0.5
  Shisa5 1437503_a_at (Group G1, Modules 20): −0.3
  Stat1 1450033_a_at (Group G1, Modules 20): −0.5
  Stat1 1450034_at (Group G1, Modules 20): −0.5
  Tdrd7 1426716_at (Group G1, Modules 20): −0.6
  Tor1aip2 1418115_s_at (Group G1, Modules 20): −0.3
  Tor1aip2 1418116_at (Group G1, Modules 20): −0.5

Source: patent US20230021483A1, “[…] […] METHOD AND CLASSIFICATION OF PHARMACEUTICAL COMPONENTS BY USING TRANSCRIPTOMES” (National Institutes of Biomedical Innovation, Health and …, priority 2016, published 2023)
